Measurements: PubChem BioAssay (NCI)
Several values for one entry are separate records, joined by “and”; a condition that tells them apart may be missing. Equal entries are not always repeated.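 Assay format: 96-well plates, 48-hour exposure. GI50 marks 50% less growth. Definition used: TGI = concentration required for complete inhibition of growth.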

Key:
Assay in all cases: growth of human tumour cells (NCI), 48 h
[1] = test system: UACC-62 melanoma
[2] = test system: MOLT-4 leukemia
[3] = test system: SF-539 CNS
[4] = test system: IGROV1 ovarian
[5] = test system: ACHN renal
[6] = test system: SR leukemia
[7] = test system: SNB-75 CNS
[8] = test system: NCI-H460 lung
[9] = test system: 786-0 renal
[10] = test system: NCI-H226 lung

| SMILES | GI50 [1] | TGI [1] | GI50 [2] | TGI [2] | GI50 [3] | TGI [3] | GI50 [4] | TGI [4] | GI50 [5] | TGI [5] | GI50 [6] | TGI [6] | GI50 [7] | TGI [7] | GI50 [8] | TGI [8] | GI50 [9] | TGI [9] | GI50 [10] | TGI [10] |
| --- | --- | --- | --- | --- | --- | --- | --- | --- | --- | --- | --- | --- | --- | --- | --- | --- | --- | --- | --- | --- |
| CC1(C)OC(=O)C=C([O-])O1.CC1(C)OC(=O)C=C([O-])O1.CC[O-].CC[O-].[Ti+4] | > 100 µM | > 100 µM | > 100 µM | > 100 µM | > 100 µM | > 100 µM | > 100 µM | > 100 µM | > 100 µM | > 100 µM | > 100 µM | > 100 µM | > 100 µM | > 100 µM | > 100 µM | > 100 µM | > 100 µM | > 100 µM | > 100 µM | > 100 µM |
| CCn1c2ccccc2c2cc(C(O)c3cccc4ncccc34)ccc21 (stereo not given) | 0.0443 µM | 2.32 µM | 0.0633 µM | > 100 µM | 0.0346 µM | 0.224 µM | 0.174 µM | > 100 µM | 0.0715 µM | 41.9 µM | 0.0248 µM | – | 0.0254 µM | 34.1 µM | 0.0388 µM | 4.61 µM | 0.0559 µM | 7.29 µM | 0.831 µM | 46.8 µM |
| CC(=O)Oc1ccc(C(c2ccc(OC(C)=O)cc2)c2ccccn2)cc1 | 21.2 µM | > 100 µM | 40.5 µM | > 100 µM | – | > 100 µM | 19.9 µM | > 100 µM | 36.8 µM | > 100 µM | > 100 µM | > 100 µM | 24.8 µM | > 100 µM | > 78.5 µM | > 100 µM | – | > 100 µM | 40.2 µM | > 100 µM |
| CN(C)C(=S)/N=c1\ss/c(=N\S(=O)(=O)c2ccccc2)n1N(C)C | – | > 100 µM | – | > 100 µM | – | > 100 µM | – | > 100 µM | – | > 100 µM | – | > 100 µM | – | > 100 µM | – | > 100 µM | – | > 100 µM | – | > 100 µM |
| COc1ccc(C2=CC(c3ccc(OC)c(OC)c3)c3c(c4ccccc4oc3=O)O2)cc1OC (stereo not given) | 0.473 µM | > 100 µM | 4.05 µM | > 100 µM | 1.02 µM | 4.43 µM | 2.47 µM | > 31.2 µM | 3.03 µM | > 100 µM | 0.498 µM | > 100 µM | 0.341 µM | 2.17 µM | 1.9 µM | > 100 µM | 1.15 µM | 11.7 µM | > 21.1 µM | > 100 µM |
| OCCN1CCN(CC/C=C2\c3ccccc3Sc3ccc(Cl)cc32)CC1 | 1.73 µM and 1.77 µM | 3.61 µM and 3.44 µM | 1.76 µM and 2.91 µM | 4.03 µM and 8.54 µM | 1.61 µM and 2.05 µM | 3.37 µM and 4.37 µM | 3.21 µM and 3.51 µM | 12.7 µM and 11 µM | 5.06 µM and 6.56 µM | 17 µM and 17.9 µM | 1.7 µM | 4.59 µM | 1.41 µM and 2.7 µM | 5.07 µM and 7.95 µM | 1.89 µM and 2.19 µM | 3.75 µM and 4.5 µM | 1.82 µM and 3.06 µM | 3.65 µM and 8.58 µM | 6.93 µM | 22.1 µM |
| CN(C)CCN1C(=O)c2cccc3cccc(c23)C1=O | 18.1 µM | > 25 µM | 6.3 µM | 16.3 µM | 15.6 µM | > 25 µM | – | – | 8.29 µM | > 25 µM | 5.18 µM | 18.3 µM | > 25 µM | > 25 µM | 8.26 µM | > 25 µM | 24 µM | > 25 µM | 12.2 µM | > 25 µM |
